Data on one compound can be found in US20050222402A1, “Dna encoding rat bombesin receptor subtype-3 (brs-3) and uses thereof” (priority 2001, published 2005).

Non-standard residues stand in square brackets, D forms with d. Residues, ends and D or L forms follow the SMILES beside them. Nle = CCCC[C@H](N)C(=O)O; βAla = NCCC(=O)O

For one test, the target named is T1, rat BRS-3 (Rattus norvegicus, UniProt Q8K418).
T1 construct: utilized to PCR amplify full-length rat BRS-3 cDNA; expressed in transfected cells; host or cells: 293EBNA cells, pE3 expression vector
T1 sequence (Q8K418 1-399): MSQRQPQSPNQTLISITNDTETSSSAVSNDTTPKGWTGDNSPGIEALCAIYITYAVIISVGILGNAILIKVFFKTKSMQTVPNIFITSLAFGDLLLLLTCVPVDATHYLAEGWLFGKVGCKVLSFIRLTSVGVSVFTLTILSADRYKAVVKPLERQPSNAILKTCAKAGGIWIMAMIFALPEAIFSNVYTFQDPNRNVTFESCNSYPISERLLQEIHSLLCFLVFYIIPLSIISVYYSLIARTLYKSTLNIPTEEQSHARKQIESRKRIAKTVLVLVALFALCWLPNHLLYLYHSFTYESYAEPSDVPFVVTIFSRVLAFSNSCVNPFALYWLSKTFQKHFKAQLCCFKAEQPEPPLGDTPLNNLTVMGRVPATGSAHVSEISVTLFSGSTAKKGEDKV
Put plainly: Phosphatidylinositol hydrolysis functional assay. It counts as cell-based. Here is the method: Wild type and mutant BRS-3 constructs were transfected by using lipofectamine reagents (Life Technologies, Rockville, Md.) into 293EBNA cells (Invitrogen, Carlsbad, Calif.) which support episomal replication of plasmid containing Epstein Bar virus OriP segment. Stable cell lines were obtained by selection with 250 ug/ml hygromycin. The cells were maintained as monolayers in Dulbecco's modified Eagle's medium (Life Technologies, Rockville, Md.) supplemented with 10% fetal bovine serum and incubated at 37° C. in a humidified 5% CO2 incubator.
The functional properties of rat BRS-3 were characterized in transfected 293EBNA cells. The transfected 293EBNA cells were plated onto poly-D-lysine coated 12-well plates and incubated in the medium containing 2 uCi/ml [^3H]myo-inositol. The cells were labeled for 48 hrs, and subsequently incubated for 30 minutes in Hank's balanced salt solution containing 10 mM HEPES, 0.1% BSA and 10 mM LiCl.
Since a natural agonist of BRS-3 has not been found, members of the bombesin-like peptide family, including GRP, NMB, bombesin and dYB, were used to stimulate the transfected cells described above, in the same buffer, for 1 hr at 37° C. The reaction was stopped by removal of medium and addition of 10 mM formic acid. The inositol monophosphate fraction was then isolated by anion chromatography as described (Berridge et al. Biochem. J. 212: 473-482 (1983), which is hereby incorporated by reference).

Test [1] concerns human bombesin receptor subtypes, including human BRS-3. The note with it: Pradhan et al. 1998; Ryan et al. 1998; cited from earlier work.

Regarding `CCCC[C@H](NC(=O)[C@H](Cc1ccccc1)NC(=O)[C@H](Cc1c[nH]cn1)NC(=O)CCNC(=O)[C@@H](NC(=O)[C@H](C)NC(=O)[C@H](Cc1c[nH]c2ccccc12)NC(=O)[C@H](CCC(N)=O)NC(=O)[C@H](N)Cc1ccc(O)cc1)C(C)C)C(N)=O` [dYB, [D-Tyr6-betaAla11-Phe13-Nle14] bombesin (6-14)] (H-[dY]QWAV[βAla]HF[Nle]-NH2), at rat BRS-3, the “increase in PI hydrolysis” value is 9 fold and the “stimulation of phosphatidylinositol (PI) hydrolysis (inositol monophosphate production)” value is reported as “significant increase”. In addition, the “affinity and potency reported” value in test [1] is “nanomolar high affinity and high potency”.
